How the values were obtained:
Type in all cases: cell-based
[1] = molecular target: T1, human RXRβ ligand binding domain (Gal4 hybrid receptor) (Homo sapiens, UniProt P28702); assay: Gal4 hybrid reporter gene assay RXRβ; conditions: HEK293T cells, n ≥ 4, read-out: RXRβ EC50 ± SEM
T1 construct: expressed in transfected cells; host or cells: HEK293T
T1 sequence (P28702 296-529 limits assumed): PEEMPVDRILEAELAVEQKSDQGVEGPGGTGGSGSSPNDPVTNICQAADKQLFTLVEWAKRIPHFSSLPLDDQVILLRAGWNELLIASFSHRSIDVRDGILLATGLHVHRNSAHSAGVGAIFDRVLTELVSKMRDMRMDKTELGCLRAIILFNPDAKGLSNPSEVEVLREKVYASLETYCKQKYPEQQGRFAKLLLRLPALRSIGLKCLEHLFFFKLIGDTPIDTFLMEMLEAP
Experimental: (§1) The 20 top-ranked synthetic compounds were selected and tested in vitro for their modulatory activity on RXR (Supplementary Table 1). Compounds were tested in specific hybrid reporter gene assays for RXRα, RXRβ and RXRγ modulation[39]–[41]. These assays rely on a constitutively expressed hybrid receptor composed of the respective human RXR ligand binding domain and the DNA binding domain of the Gal4 receptor from yeast. A Gal4 responsive firefly luciferase was used as reporter gene and constitutively expressed renilla luciferase served as internal control for transfection efficiency and test compound toxicity. All selected compounds were tested at 50 µM concentration on RXRα and for active compounds (Supplementary Fig. 1), dose response curves were recorded on all three RXR subtypes.
(§2) The Gal4 hybrid reporter gene assays were conducted as reported previously[39]–[41]. pFA-CMV-based constructs comprising the ligand binding domain of the human nuclear receptor in question were used as expression plasmids for the chimera receptors. pFR-Luc (Stratagene) served as reporter plasmid and pRL-SV40 (Promega) for normalization of transfection efficiency and cell growth. The assays were conducted in 96-well format in HEK293T cells that were cultured as described previously[39]–[41]. Transient transfection was carried out using Lipofectamine LTX reagent (Invitrogen) according to the manufacturer’s protocol. After transfection and incubation with test compounds (12–14 h), cells were assayed for luciferase activity using Dual-Glo™ Luciferase Assay System (Promega) according to the manufacturer’s protocol. Luminescence was measured with an Infinite M200 luminometer (Tecan Deutschland GmbH). All hybrid assays were validated with reference agonists (PPARα: GW7647; PPARγ: pioglitazone; PPARδ: L165,041; LXRα/β: T0901317; FXR: GW4064; RXRs: bexarotene; RARs: tretinoin; VDR: calcitriol; CAR: CITCO; PXR: SR12813) which yielded EC50 values in agreement with literature. The assays were conducted in duplicates with at least two independent repeats and for active compounds repeated without hybrid receptor coding DNA for every test compound at the highest tested concentration to exclude unspecific effects.
(§3) Supplementary Figure 2. Dose-response curves for RXRα activation. Compounds were tested in specific hybrid reporter gene assays for RXRα, RXRβ and RXRγ modulation.^1–3 These assays rely on a constitutively expressed hybrid receptor composed of the respective human RXR ligand binding domain and the DNA binding domain of the Gal4 receptor from yeast. A Gal4 responsive firefly luciferase was used as reporter gene and constitutively expressed renilla luciferase served as internal control for transfection efficiency and test compound toxicity. […]

[2] = molecular target: T2, PPARγ (Homo sapiens, UniProt P37231); assay: Gal4 hybrid reporter gene assay PPARγ (selectivity profiling)
T2 construct: expressed in transfected cells; host or cells: HEK293T
T2 sequence (P37231 238-503 limits assumed): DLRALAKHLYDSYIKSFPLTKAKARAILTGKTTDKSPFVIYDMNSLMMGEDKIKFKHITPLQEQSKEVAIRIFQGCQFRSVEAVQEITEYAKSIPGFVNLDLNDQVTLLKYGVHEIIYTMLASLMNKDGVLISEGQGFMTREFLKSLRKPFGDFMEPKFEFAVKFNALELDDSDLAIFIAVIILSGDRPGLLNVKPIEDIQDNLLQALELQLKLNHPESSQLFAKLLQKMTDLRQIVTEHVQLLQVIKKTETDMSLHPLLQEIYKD
Experimental: (§4) Moreover, 7 was characterized for its ability to modulate RXR target gene expression under more physiological conditions. Hepatoma cells (HepG2) were incubated with 7 (30 µM) or reference RXR agonist bexarotene (9, 1 µM) for eight hours and mRNA expression of RXR regulated genes ATP-binding cassette transporter A1 (ABCA1), angiopoietin like protein 4 (ANGPTL4) and apolipoprotein E (ApoE) was analysed by quantitative real-time PCR.
as §2, with “All hybrid assays were validated with reference agonists (PPARα: GW7647; PPARγ: pioglitazone; PPARδ: L165,041; LXRα/β: T0901317; FXR: GW4064; RXRs: bexarotene; RARs: tretinoin; VDR: calcitriol; CAR: CITCO; PXR: SR12813) which yielded EC50 values in agreement with literature. The assays were conducted in duplicates with at least two independent repeats and for active compounds repeated without hybrid receptor coding DNA for every test compound at the highest tested concentration to exclude unspecific effects.” left out

[3] = molecular target: T3, RARγ (Homo sapiens, UniProt P13631); assay: Gal4 hybrid reporter gene assay RARγ (selectivity profiling)
T3 construct: expressed in transfected cells; host or cells: HEK293T
T3 sequence (P13631 185-419 limits assumed): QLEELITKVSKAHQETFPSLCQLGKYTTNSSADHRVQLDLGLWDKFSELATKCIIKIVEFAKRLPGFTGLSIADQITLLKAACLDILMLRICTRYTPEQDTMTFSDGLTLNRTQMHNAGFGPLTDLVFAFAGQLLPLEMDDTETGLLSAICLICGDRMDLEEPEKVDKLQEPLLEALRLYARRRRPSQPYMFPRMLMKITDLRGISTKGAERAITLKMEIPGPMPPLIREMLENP
Experimental: as §4
as §2, with “All hybrid assays were validated with reference agonists (PPARα: GW7647; PPARγ: pioglitazone; PPARδ: L165,041; LXRα/β: T0901317; FXR: GW4064; RXRs: bexarotene; RARs: tretinoin; VDR: calcitriol; CAR: CITCO; PXR: SR12813) which yielded EC50 values in agreement with literature. The assays were conducted in duplicates with at least two independent repeats and for active compounds repeated without hybrid receptor coding DNA for every test compound at the highest tested concentration to exclude unspecific effects.” left out

[4] = molecular target: T4, human RXRγ ligand binding domain (Gal4 hybrid receptor) (Homo sapiens, UniProt P48443); assay: Gal4 hybrid reporter gene assay RXRγ; conditions: HEK293T cells, n ≥ 4, read-out: RXRγ EC50 ± SEM
T4 construct: expressed in transfected cells; host or cells: HEK293T
T4 sequence (P48443 231-459 limits assumed): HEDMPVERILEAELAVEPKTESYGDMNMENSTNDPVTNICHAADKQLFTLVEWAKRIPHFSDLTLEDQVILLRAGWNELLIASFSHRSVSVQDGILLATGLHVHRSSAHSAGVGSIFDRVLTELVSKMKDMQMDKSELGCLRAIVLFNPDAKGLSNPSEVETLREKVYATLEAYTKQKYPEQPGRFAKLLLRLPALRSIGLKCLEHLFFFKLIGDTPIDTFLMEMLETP
Experimental: as §1, §2, §3

[5] = molecular target: T5, vitamin D receptor [VDR] (Homo sapiens, UniProt P11473); assay: Gal4 hybrid reporter gene assay VDR (selectivity profiling)
T5 construct: expressed in transfected cells; host or cells: HEK293T
T5 sequence (P11473 127-423 limits assumed): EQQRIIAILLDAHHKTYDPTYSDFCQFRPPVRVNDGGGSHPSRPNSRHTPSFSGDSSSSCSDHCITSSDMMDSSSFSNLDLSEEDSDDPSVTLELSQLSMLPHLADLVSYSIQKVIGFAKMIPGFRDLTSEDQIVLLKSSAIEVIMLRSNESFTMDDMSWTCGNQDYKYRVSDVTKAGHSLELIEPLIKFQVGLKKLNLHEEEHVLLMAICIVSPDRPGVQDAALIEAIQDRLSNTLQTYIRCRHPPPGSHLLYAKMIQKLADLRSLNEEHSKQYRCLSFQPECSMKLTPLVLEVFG
Experimental: as §4
as §2, with “All hybrid assays were validated with reference agonists (PPARα: GW7647; PPARγ: pioglitazone; PPARδ: L165,041; LXRα/β: T0901317; FXR: GW4064; RXRs: bexarotene; RARs: tretinoin; VDR: calcitriol; CAR: CITCO; PXR: SR12813) which yielded EC50 values in agreement with literature. The assays were conducted in duplicates with at least two independent repeats and for active compounds repeated without hybrid receptor coding DNA for every test compound at the highest tested concentration to exclude unspecific effects.” left out

CC(C)(C)c1cc(/C=N/NC(=O)c2ccc(N)cc2)cc(C(C)(C)C)c1 [Compound 7]
EC50 [1]: 25.1 ± 0.1 µM | activity on PPARγ [2]: no activity | activity on RARγ [3]: no activity | EC50 [4]: 28.2 ± 0.1 µM | activity on VDR [5]: no activity
